Test results from US5382670A, “Platelet activating factor antagonists” (priority 1993, dated 1995).
Counter-ions that a name gives are not always drawn. Like-named read-outs stand apart in the source and are kept apart here.

Target: PAF receptor (Oryctolagus cuniculus, UniProt G1TEI7)
Test: PAF receptor binding assay: inhibition of specific [3H]C18-PAF binding to rabbit platelet membranes
Conditions: 0.6 nM [3H]C18-PAF, 60 min, 22-23 °C, Ki from IC50 (Cheng and Prusoff)
Protocol: The ability of representative compounds of the present invention to inhibit PAF activity was determined in an in vitro test using the following method.
Citrated whole rabbit blood was obtained from Pel-Freez (Rogers, AR). Rabbit platelets were prepared by centrifugation and washing. The platelets were lysed by freeze-thawing and sonication; platelet membranes were prepared by centrifugation and washing. Final membrane preparations were stored frozen in 10 mM Tris/5 mM MgCl2 /2 mM EDTA (TME buffer, pH 7.0) with 0.25M sucrose added for membrane stabilization.
The standard PAF receptor binding assay contained 10 μg platelet membrane protein, 0.6 nM [^3 H]C18 -PAF (from Amersham or New England Nuclear; specific activity 120-180 Ci/mmol), with and without test compound, in "binding buffer" consisting of TME with 0.25% bovine serum albumin added (Sigma, RIA grade). The final volume of the assay was 100 μl. The assay was conducted in Millititre-GV™ (Millipore Corp.) filtration plates; incubation time was for 60 minutes at room temperature (22°-23° C.). "Specific binding" was operationally defined as the arithmetic difference between "total binding" of 0.6 nM [^3 H]C18 -PAF (in the abasence of added PAF) and "nonspecific binding" (in the presence of 1 μM PAF). After the prescribed incubation, platelet membranes were filtered under vacuum, and washed with 1 milliliter of "binding buffer". The filters were dried and removed. The bound radioactivity was quantitated with a Berthold TLC-Linear Analyzer model LB2842.
Dose-response curves of inhibition of specific [^3 H]C18 -PAF binding by test compounds were conducted in triplicate, with at least four doses covering the active range. Experiments were repeated at least once. IC50 values (concentration producing 50% inhibition) were determined by point-to-point evaluation. Ki values of inhibitory binding constants were calculated according to the method of Cheng and Prusoff [Biochem. Pharmacol. 22 (1973) 3099-3108] whereby [formula]
The values of Ki for representative compounds of the present invention appear in Table 1.

[1] = read-out: Ki (PAF Receptor Binding Activity)
[2] = Ki (PAF Receptor Binding Activity)

Chain of PAF receptor (G1TEI7 1-342): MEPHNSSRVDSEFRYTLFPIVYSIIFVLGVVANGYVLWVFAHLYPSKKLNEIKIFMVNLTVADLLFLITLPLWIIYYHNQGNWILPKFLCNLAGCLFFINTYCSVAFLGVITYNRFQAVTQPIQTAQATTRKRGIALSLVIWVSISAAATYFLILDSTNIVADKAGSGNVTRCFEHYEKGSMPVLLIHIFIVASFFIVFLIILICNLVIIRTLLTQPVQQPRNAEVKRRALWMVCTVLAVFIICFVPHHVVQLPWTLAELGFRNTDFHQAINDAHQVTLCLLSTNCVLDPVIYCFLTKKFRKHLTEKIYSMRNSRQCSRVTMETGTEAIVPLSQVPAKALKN

Row | SMILES | Ki [1] | Ki [2]
1 | O=C(c1ccccc1)c1cccc2c1ccn2C(=O)C1CSC(c2cccnc2)N1 (stereo not drawn) [Example 7, 1-[2-(3-pyridinyl)thiazolid-4-oyl]-4-benzoylindole dihydrochloride] | 0.012 µM | –
2 | CN(C)C(=O)n1cc(C(=O)[C@@H]2CS[C@@H](c3cccnc3)N2C(=O)C(F)(F)F)c2ccccc21 (relative stereo) [Example 107, trans-1-dimethylcarbamoyl 1-34 2-(3-pyridinyl)-3-trifluoroacetylthiazolid-4-oyl]indole oxalate] | 0.075 µM | –
3 | CN(C)C(=O)n1cc(C(=O)C2CSC(c3cccnc3)N2S(C)(=O)=O)c2ccccc21 (stereo not drawn) [Example 112, 1-dimethylcarbamoyl-3-[2-(3-pyridinyl)-3-methylsulfonylthiazolid-4-oyl]indole] | 4.8 µM | –
4 | Cc1c(C(=O)C2CSC(c3cccnc3)N2)c2ccccc2n1C(=O)N1CCOCC1 (stereo not drawn) [Example 64, 1-(1-morpholinocarbonyl)-2-methyl-3-[2-(3-pyridinyl)thiazolid-4-oyl]indole] | 0.088 µM | –
5 | O=C(O)CCn1cc(C(=O)C2CSC(c3cccnc3)N2)c2ccccc21 (stereo not drawn) [Example 119, 1-carboxyethyl-3-[2-(3-pyridinyl)thiazolid-4-oyl]indole] | – | 0.02 µM
6 | COc1cc2ccn(C(=O)C3CSC(c4cccnc4)N3)c2cc1OC (stereo not drawn) [Example 13, 1-[2-(3-pyridinyl)thiazolid-4-oyl]-5,6-dimethoxyindole dihydrochloride] | – | 2.4 µM
7 | Cc1cccc2c(C(=O)C3CSC(c4cccnc4)N3)c[nH]c12 (stereo not drawn) [Example 25, 3-(2-(3-pyridinyl)thiazolid-4-oyl)-7-methylindole oxalate] | – | 0.005 µM
8 | CC(C)(C)OC(=O)n1cc(C(=O)C2CSC(c3cccnc3)N2C=O)c2ccccc21 (stereo not drawn) [Example 56, 1-tert-butoxycarbonyl-3-[2-(3-pyridinyl)-3-formylcarbonylthiazolid-4-oyl]indole] | 0.15 µM | –
9 | O=C(C1CSC(c2cccnc2)N1)n1ccc2ccc(F)cc21 (stereo not drawn) [Example 14, 1-[2-(3-pyridinyl)thiazolid-4-oyl]-6-fluoroindole] | – | 0.067 µM
10 | COc1ccc2c(C(=O)C3CSC(c4cccnc4)N3)c[nH]c2c1 (stereo not drawn) [Example 82, 3-[2-(3-pyridinyl)thiazolid-4-oyl]-6-methoxyindole] | – | 0.009 µM
11 | CN(C)C(=O)n1cc(C(=O)[C@@H]2CSC(c3cccnc3)N2C=O)c2ccccc21 (stereo partly drawn) [Example 96, trans-1-dimethylcarbamoyl-3-[2-(3-pyridinyl)-3-formylthiazolid-4-oyl]indole] | 0.15 µM | –
12 | Cc1ccc2c(c1)cc(C)n2C(=O)C1CSC(c2cccnc2)N1 (stereo not drawn) [Example 4, 1-[2-(3-pyridinyl)thiazolid-4-oyl]-2,5-dimethylindole] | – | 0.046 µM

Further lines, with some results ahead:

Row | Ki [1] | SMILES | Ki [2]
13 | 0.003 µM | O=C(c1c[nH]c2cc(OCc3ccc(F)cc3)ccc12)C1CSC(c2cccnc2)N1 (stereo not drawn) [Example 74, 3-[2-(3-pyridinyl)thiazolid-4-oyl]-6-(4-fluorophenylmethoxy)indole] | –
14 | 0.27 µM | O=CN1C(C(=O)c2c[nH]c3ccccc23)CSC1c1cccnc1 (stereo not drawn) [Example 90, 3-[2-(3-pyridinyl)-3-formylthiazolid-4-oyl]indole] | –
15 | 0.009 µM | CC(C)(C)C(=O)n1cc(C(=O)C2CSC(c3cccnc3)N2)c2ccccc21 (stereo not drawn) [Example 47, 1-tert-butoyl-3-[2-(3-pyridinyl)thiazolid-4-oyl]indole] | –
16 | 0.15 µM | CN(C)C(=O)n1cc(C(=O)[C@@H]2CS[C@H](c3cccnc3)N2C=O)c2ccccc21 (relative stereo) [Example 97, cis-1-Dimethylcarbamoyl-3-[2-(3-pyridinyl)-3-formylthiazolid-4-oyl]indole] | –
17 | 0.035 µM | CN(C)C(=O)n1cc(C(=O)C2CSC(c3cccnc3)N2C=O)c2ccc(OCc3ccccc3)cc21 (stereo not drawn) [Example 93, 1-dimethylcarbamoyl-3-[2-(3-pyridinyl)-3-formylthiazolid-4-oyl]-6-phenylmethoxyindole] | –
18 | 1 µM | O=C(c1cn(S(=O)(=O)c2ccccc2)c2ccccc12)C1CSC(c2cccnc2)S1 (stereo not drawn) [Example 32, 1-phenylsulfonyl 3-[2-(3-pyridinyl)dithiolan-4-oyl]indole oxalate] | –
